This experiment concerns primary rat mixed cortical cells. Put plainly: In vitro myelination assay (MBP positive myelin strands, fold myelin pixels above background). It counts as cell-based. The conditions noted are these: Rattus norvegicus; for fold induction at 1 µM: 1.0 μM compound; for fold induction at 10 µM: 10.0 μM compound. The procedure, abridged:
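Fourteen-day treatment of primary P1 rat mixed cortical cultures, re-dosed at days 6 and 10, at 1.0 μM and 10.0 μM. MBP immunofluorescence was imaged at 10× and myelin strands quantified by software, normalised to untreated wells as fold above background.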

The mark [1] stands for this setting: relative to baseline of no added compound, read-out: Fold myelin pixels above background.
The mark [2] stands for this setting: relative to baseline of no added compound, read-out: Fold myelin pixels above background, 1.0 μM.
[3] abbreviates: relative to baseline of no added compound, read-out: Fold myelin pixels above background, 10.0 μM.
Where [4] appears, read: read-out: Fold myelin pixels above background relative to baseline of no added compound.

Each structure is given as a SMILES string. Read-outs that look alike come from different tables or passages of the source.

Consider `Cc1cc(Nc2ncn(-c3cc(F)cc(F)c3)n2)nc(N2CC(N3CCOCC3)C2)c1` [Compound 537, N-[1-(3,5-difluorophenyl)-1,2,4-triazol-3-yl]-4-methyl-6-(3-morpholinoazetidin-1-yl)pyridin-2-amine], for which, under setting [1], the fold induction at 1 µM is 1 to 10 and the fold induction at 10 µM was no more than 1.
`COCC1CCN(c2cc(C)cc(Nc3ncn(-c4ccc(F)c(F)c4)n3)c2)CC1` [Compound 299, 1-(3,4-difluorophenyl)-N-[3-[4-(methoxymethyl)-1-piperidyl]-5-methyl-phenyl]-1,2,4-triazol-3-amine]: the fold induction at 1 µM under setting [2] was in the range of 100 to 1000. The fold induction at 10 µM under setting [3] is 10 to 100.
Taken in the same sequence, the figures for `COc1cc(Nc2ncn(-c3ccc(F)cc3)n2)cc(N2CCN(C3COC3)CC2)c1` [Compound 102, 1-(4-fluorophenyl)-N-[3-methoxy-5-[4-(oxetan-3-yl)piperazin-1-yl]phenyl]-1,2,4-triazol-3-amine] were 100 to 1000 and 1 to 10.
The corresponding values for `Cc1cc(Nc2ncn(-c3ccccc3)n2)cc(N2CCN(C)CC2)n1` [Compound 156, 2-methyl-6-(4-methylpiperazin-1-yl)-N-(1-phenyl-1,2,4-triazol-3-yl)pyridin-4-amine] are 1000 to 10000 and no more than 1.
Taken in the same sequence, the figures for `CN(C)C1CCN(c2cc(F)cc(Nc3ncn(-c4ccc(F)cc4F)n3)c2)C1` (centres unmarked) [Compound 347, 1-(2,4-difluorophenyl)-N-[3-[3-(dimethylamino)pyrrolidin-1-yl]-5-fluoro-phenyl]-1,2,4-triazol-3-amine] were no more than 1 and no more than 1.
Turning to `CC1CCN(c2cc(Nc3ncn(-c4ccc(F)c(F)c4)n3)cc(C3CC3)n2)CC1` [Compound 202, 2-cyclopropyl-N-[1-(3,4-difluorophenyl)-1,2,4-triazol-3-yl]-6-(4-methyl-1-piperidyl)pyridin-4-amine], the fold induction at 1 µM under setting [2] is 100 to 1000. Further, the fold induction at 10 µM under setting [3] lay within 10 to 100.
Taken in the same sequence, the figures for `Fc1cc(-n2cnc(Nc3cc(C4CC4)cc(N4CCN(C5COC5)CC4)c3)n2)ccn1` [Compound 184, N-[3-cyclopropyl-5-[4-(oxetan-3-yl)piperazin-1-yl]phenyl]-1-(2-fluoro-4-pyridyl)-1,2,4-triazol-3-amine] were 10 to 100 and 1 to 10.
`COCCN(C)C(=O)C1CN(c2cc(C)cc(Nc3ncn(-c4cc(F)cc(F)c4)n3)c2)C1` [Compound 824, 1-[3-[[1-(3,5-difluorophenyl)-1,2,4-triazol-3-yl]amino]-5-methyl-phenyl]-N-(2-methoxyethyl)-N-methyl-azetidine-3-carboxamide]: under setting [4], the fold induction at 1 µM fell in the range of 10 to 100 and the fold induction at 10 µM is 1 to 10.
On to `Cc1cc(Nc2ncn(-c3ccccc3)n2)cc(N2CCN(CC3(C)COC3)CC2)c1` [Compound 431, N-[3-methyl-5-[4-[(3-methyloxetan-3-yl)methyl]piperazin-1-yl]phenyl]-1-phenyl-1,2,4-triazol-3-amine], for which, under setting [1], the fold induction at 1 µM was in the range of 1 to 10 and the fold induction at 10 µM is no more than 1.
Take `CC(=O)N1CCCC(c2cc(C)cc(Nc3ncn(-c4cnccn4)n3)c2)C1` (centres unmarked) [Compound 300, 1-[3-[3-methyl-5-[(1-pyrazin-2-yl-1,2,4-triazol-3-yl)amino]phenyl]-1-piperidyl]ethanone]: the fold induction at 1 µM under setting [2] lay in the range of 100 to 1000. For the same molecule, the fold induction at 10 µM under setting [3] is no more than 1.
As to `Cc1cc(Nc2ncn(-c3ccccc3)n2)cc(N2CC(C)N(C)CC2C)c1` (centres unmarked) [Compound 419, N-[3-methyl-5-(2,4,5-trimethylpiperazin-1-yl)phenyl]-1-phenyl-1,2,4-triazol-3-amine], under setting [1], the fold induction at 1 µM lay in the range of 10 to 100 and the fold induction at 10 µM was no more than 1.
Take `Cc1cc(Nc2ncn(-c3cc(F)cc(F)c3)n2)cc(N2CCN(CCCN3CCCC3)CC2)c1` [Compound 945, 1-(3,5-difluorophenyl)-N-[3-methyl-5-[4-(3-pyrrolidin-1-ylpropyl)piperazin-1-yl]phenyl]-1,2,4-triazol-3-amine]: under setting [4], the fold induction at 1 µM was 1 to 10 and the fold induction at 10 µM was no more than 1.
For `Cc1cc(Nc2ncn(-c3cc(F)cc(F)c3)n2)cc(N2CC(S(C)(=O)=O)C2)c1` [Compound 1037, 1-(3,5-difluorophenyl)-N-[3-methyl-5-(3-methylsulfonylazetidin-1-yl)phenyl]-1,2,4-triazol-3-amine], under setting [4], the fold induction at 1 µM is 10 to 100 and the fold induction at 10 µM is no more than 1.
Take `Fc1cc(F)cc(-n2cnc(Nc3cc(Cl)cc(N4CCOCC4)c3)n2)c1` [Compound 426, N-(3-chloro-5-morpholino-phenyl)-1-(3,5-difluorophenyl)-1,2,4-triazol-3-amine]: under setting [1], the fold induction at 1 µM was 1000 to 10000 and the fold induction at 10 µM was in the range of 1000 to 10000.
As for `Cc1cc(Nc2ncn(-c3ccccc3)n2)cc(C2CCNCC2)c1` [Compound 308, N-[3-methyl-5-(4-piperidyl)phenyl]-1-phenyl-1,2,4-triazol-3-amine], the fold induction at 1 µM under setting [2] lay in the range of 1000 to 10000. Under setting [3], the fold induction at 10 µM was no more than 1.
Consider `COc1c(F)cc(-n2cnc(Nc3cc(C)cc(N4CC(N5CCOCC5)C4)c3)n2)cc1F` [Compound 782, 1-(3,5-difluoro-4-methoxy-phenyl)-N-[3-methyl-5-(3-morpholinoazetidin-1-yl)phenyl]-1,2,4-triazol-3-amine], for which, under setting [1], the fold induction at 1 µM lay within 10 to 100 and the fold induction at 10 µM was in the range of 1 to 10.
As for `Cc1cc(Nc2ncn(-c3cc(F)cc(F)c3)n2)cc(O[C@@H]2CCN(C3COC3)C2)c1` [Compound 178, 1-(3,5-difluorophenyl)-N-[3-methyl-5-[(3R)-1-(oxetan-3-yl)pyrrolidin-3-yl]oxy-phenyl]-1,2,4-triazol-3-amine], the fold induction at 1 µM under setting [2] was in the range of 1000 to 10000. Besides, the fold induction at 10 µM under setting [3] was 1 to 10.
As to `Cc1cc(Nc2ncn(-c3cc(F)cc(F)c3)n2)cc(N2CC(N3CCOC4(CC4)C3)C2)c1` [Compound 586, 1-(3,5-difluorophenyl)-N-[3-methyl-5-[3-(4-oxa-7-azaspiro[2.5]octan-7-yl)azetidin-1-yl]phenyl]-1,2,4-triazol-3-amine], under setting [1], the fold induction at 1 µM was in the range of 10 to 100 and the fold induction at 10 µM lay within 10 to 100.
In the case of `Cc1cc(Nc2ncn(-c3cc(F)cc(F)c3)n2)cc(N2CCOC3(CCC3)C2)c1` [Compound 543, 1-(3,5-difluorophenyl)-N-[3-methyl-5-(9-oxa-6-azaspiro[3.5]nonan-6-yl)phenyl]-1,2,4-triazol-3-amine], under setting [1], the fold induction at 1 µM was in the range of 1 to 10 and the fold induction at 10 µM was in the range of 1 to 10.
For the molecule `CCc1cc(Nc2ncn(-c3cc(C)ccc3F)n2)cc(N2CCN(C3COC3)CC2)c1` [Compound 338, N-[3-ethyl-5-[4-(oxetan-3-yl)piperazin-1-yl]phenyl]-1-(2-fluoro-5-methyl-phenyl)-1,2,4-triazol-3-amine], under setting [2], the fold induction at 1 µM lay within 1 to 10. For the same molecule, under setting [3], the fold induction at 10 µM is 10 to 100.
With `Cc1cc(Nc2ncn(-c3cc(F)cc(F)c3)n2)nc(N2CCCC(CO)C2)c1` (centres unmarked) [Compound 815, [1-[6-[[1-(3,5-difluorophenyl)-1,2,4-triazol-3-yl]amino]-4-methyl-2-pyridyl]-3-piperidyl]methanol], under setting [4], the fold induction at 1 µM fell in the range of 1 to 10 and the fold induction at 10 µM lay in the range of 10 to 100.
Take `Cc1cc(Nc2ncn(-c3cc(F)cc(F)c3)n2)cc(C2CNC(=O)O2)c1` (centres unmarked) [Compound 295, 5-[3-[[1-(3,5-difluorophenyl)-1,2,4-triazol-3-yl]amino]-5-methyl-phenyl]oxazolidin-2-one]: the fold induction at 1 µM under setting [2] was 10 to 100. Besides, the fold induction at 10 µM under setting [3] fell in the range of 1 to 10.
The corresponding values for `Cc1cc(Nc2ncn(-c3ccccc3)n2)cc(N2CCN(C3COC3)CC2)c1` [Compound 118, N-[3-methyl-5-[4-(oxetan-3-yl)piperazin-1-yl]phenyl]-1-phenyl-1,2,4-triazol-3-amine] are 100 to 1000 and 10 to 100.
For the molecule `Fc1cc(F)cc(-n2cnc(Nc3cc(C(F)(F)F)cc(N4CCN([C@H]5CCOC5)CC4)n3)n2)c1` (single isomer, unassigned) [Compound 787], under setting [4], the fold induction at 1 µM is 1 to 10 and the fold induction at 10 µM lay in the range of 10 to 100.
For `Cc1cc(Nc2ncn(-c3cc(F)cc(F)c3)n2)nc(N2CCN([C@H]3CCOC3)CC2)c1` (single isomer, unassigned) [Compound 673], under setting [1], the fold induction at 1 µM was in the range of 10 to 100 and the fold induction at 10 µM was in the range of 100 to 1000.
Take `Cc1cc(NCC(N2CCOCC2)C(F)(F)F)cc(Nc2ncn(-c3cc(F)cc(F)c3)n2)c1` (centres unmarked) [Compound 899, N1-[1-(3,5-difluorophenyl)-1,2,4-triazol-3-yl]-5-methyl-N3-(3,3,3-trifluoro-2-morpholino-propyl)benzene-1,3-diamine]: under setting [4], the fold induction at 1 µM was in the range of 1 to 10 and the fold induction at 10 µM lay within 1 to 10.
As for `CC(C)(C)c1cc(Nc2ncn(-c3cc(F)cc(F)c3)n2)cc(N2CCN(C3COC3)CC2)c1` [Compound 17, N-[3-tert-butyl-5-[4-(oxetan-3-yl)piperazin-1-yl]phenyl]-1-(3,5-difluorophenyl)-1,2,4-triazol-3-amine], the fold induction at 1 µM under setting [2] lay in the range of 100 to 1000. Further, the fold induction at 10 µM under setting [3] is no more than 1.
Taken in the same sequence, the figures for `Cc1cc(Nc2ncn(-c3ccccc3)n2)cc(C2CCN(C3(CS(=O)(=O)c4ccccc4)COC3)CC2)c1` [Compound 51, N-[3-[1-[3-(benzenesulfonylmethyl)oxetan-3-yl]-4-piperidyl]-5-methyl-phenyl]-1-phenyl-1,2,4-triazol-3-amine] were 100 to 1000 and 100 to 1000.

The record behind these values is patent publication US10766869B2, “Triazoles for the treatment of demyelinating dieases” (Vertex Pharmaceuticals Incorporated, priority 2015, dated 2020).
